The source made the active and inactive calls. How the calls were made is not given here.
Tested on: CCRIS mutagenicity, Ames/micronucleus/aberration tests
Test: CCRIS mutagenicity studies
[1] = Test System: AMES SALMONELLA TYPHIMURIUM, Strain/Indicator: TA98, Metabolic Activation: NONE, Method: PREINCUBATION
[2] = Test System: AMES SALMONELLA TYPHIMURIUM, Strain/Indicator: TA98, Metabolic Activation: RAT, LIVER, S-9, AROCLOR 1254, Method: PREINCUBATION
[3] = Test System: AMES SALMONELLA TYPHIMURIUM, Strain/Indicator: TA100, Metabolic Activation: NONE, Method: PREINCUBATION
[4] = Test System: AMES SALMONELLA TYPHIMURIUM, Strain/Indicator: TA1535, Metabolic Activation: NONE, Method: PREINCUBATION
[5] = Test System: AMES SALMONELLA TYPHIMURIUM, Strain/Indicator: TA98, Metabolic Activation: NONE, Method: STANDARD PLATE
[6] = Test System: AMES SALMONELLA TYPHIMURIUM, Strain/Indicator: TA100, Metabolic Activation: NONE, Method: STANDARD PLATE
[7] = Test System: AMES SALMONELLA TYPHIMURIUM, Strain/Indicator: TA98, Metabolic Activation: RAT, LIVER, S-9, AROCLOR 1254, Method: STANDARD PLATE
[8] = Test System: AMES SALMONELLA TYPHIMURIUM, Strain/Indicator: TA100, Metabolic Activation: RAT, LIVER, S-9, AROCLOR 1254, Method: STANDARD PLATE

Cc1cccc(OP(=O)(Oc2cccc(C)c2)Oc2cccc(C)c2)c1
mutagenic call (Test System: AMES SALMONELLA TYPHIMURIUM, Strain/Indicator: TA98, Metabolic Activation: HAMSTER, LIVER, S-9, AROCLOR 1254, Method: PREINCUBATION): inactive; negative | mutagenic call [1]: inactive; negative | mutagenic call [2]: inactive; negative | mutagenic call (Test System: AMES SALMONELLA TYPHIMURIUM, Strain/Indicator: TA100, Metabolic Activation: HAMSTER, LIVER, S-9, AROCLOR 1254, Method: PREINCUBATION): inactive; negative | mutagenic call [3]: inactive; negative | mutagenic call (Test System: AMES SALMONELLA TYPHIMURIUM, Strain/Indicator: TA100, Metabolic Activation: RAT, LIVER, S-9, AROCLOR 1254, Method: PREINCUBATION): inactive; negative | mutagenic call (Test System: AMES SALMONELLA TYPHIMURIUM, Strain/Indicator: TA1535, Metabolic Activation: HAMSTER, LIVER, S-9, AROCLOR 1254, Method: PREINCUBATION): inactive; negative | mutagenic call [4]: inactive; negative | mutagenic call (Test System: AMES SALMONELLA TYPHIMURIUM, Strain/Indicator: TA1535, Metabolic Activation: RAT, LIVER, S-9, AROCLOR 1254, Method: PREINCUBATION): inactive; negative | mutagenic call (Test System: AMES SALMONELLA TYPHIMURIUM, Strain/Indicator: TA1537, Metabolic Activation: HAMSTER, LIVER, S-9, AROCLOR 1254, Method: PREINCUBATION): inactive; negative | mutagenic call (Test System: AMES SALMONELLA TYPHIMURIUM, Strain/Indicator: TA1537, Metabolic Activation: NONE, Method: PREINCUBATION): inactive; negative | mutagenic call (Test System: AMES SALMONELLA TYPHIMURIUM, Strain/Indicator: TA1537, Metabolic Activation: RAT, LIVER, S-9, AROCLOR 1254, Method: PREINCUBATION): inactive; negative

ClCc1ccc2c(c1)-c1cccc3cccc-2c13
mutagenic call [5]: active; positive | mutagenic call [6]: active; positive

Oc1ccc2ccc3c4c(cc5ccc1c2c53)[C@@H](O)[C@H](O)C=C4
mutagenic call (Test System: AMES SALMONELLA TYPHIMURIUM, Strain/Indicator: TA97, Metabolic Activation: RAT, LIVER, S-9, AROCLOR 1254, Method: STANDARD PLATE): active; positive | mutagenic call [7]: active; positive | mutagenic call [8]: active; positive | mutagenic call (Test System: AMES SALMONELLA TYPHIMURIUM, Strain/Indicator: TA1537, Metabolic Activation: RAT, LIVER, S-9, AROCLOR 1254, Method: STANDARD PLATE): active; positive | mutagenic call (Test System: CHINESE HAMSTER V-79, Strain/Indicator: V-79/6-THIOGUANINE, Metabolic Activation: RAT, LIVER, S-9, AROCLOR 1254): active; positive

CCCCN(CCCC(=O)O)N=O
mutagenic call (End Point: IN VITRO MICRONUCLEUS, Test System: CHL/IU CELLS, Metabolic Activation: NONE): active; positive | mutagenic call (Test System: AMES SALMONELLA TYPHIMURIUM, Strain/Indicator: TA100, Metabolic Activation: BOVINE, URINARY BLADDER, S-9, Method: PREINCUBATION): inactive; negative | mutagenic call (Test System: AMES SALMONELLA TYPHIMURIUM, Strain/Indicator: TA100, Metabolic Activation: PIG, URINARY BLADDER, S-9, Method: PREINCUBATION): inactive; negative | mutagenic call (Test System: AMES SALMONELLA TYPHIMURIUM, Strain/Indicator: TA100, Metabolic Activation: RAT, LIVER, MICROSOMES, SODIUM PHENOBARBITONE, Method: PREINCUBATION): inactive; negative | mutagenic call (Test System: AMES SALMONELLA TYPHIMURIUM, Strain/Indicator: TA100, Metabolic Activation: RAT, LIVER, S-9, AROCLOR, Method: PREINCUBATION): inactive; negative | mutagenic call [4]: inactive; negative | mutagenic call (Test System: AMES SALMONELLA TYPHIMURIUM, Strain/Indicator: TA1535, Metabolic Activation: RAT, LIVER, MICROSOMES, SODIUM PHENOBARBITONE, Method: PREINCUBATION): inactive; negative | mutagenic call (Test System: AMES SALMONELLA TYPHIMURIUM, Strain/Indicator: TA1535, Metabolic Activation: RAT, LIVER, S-9, AROCLOR, Method: PREINCUBATION): inactive; negative | mutagenic call (Test System: AMES SALMONELLA TYPHIMURIUM, Strain/Indicator: TA1535, Metabolic Activation: RAT, LIVER, S-9, KC500 OR PHENOBARBITAL, Method: LIQUID SUSPENSION): active; positive

Cc1ccc2c3c(cc4ccccc42)-c2ccccc2-c13
mutagenic call (Test System: AMES SALMONELLA TYPHIMURIUM, Strain/Indicator: TA100, Metabolic Activation: RAT, LIVER, S-9, AROCLOR 1254): active; positive

Cc1cc(N)cc([N+](=O)[O-])c1N
mutagenic call [7]: active; positive | mutagenic call (Test System: AMES SALMONELLA TYPHIMURIUM, Strain/Indicator: TA1538, Metabolic Activation: RAT, LIVER, S-9, AROCLOR 1254, Method: STANDARD PLATE): active; positive

Cc1ccccc1N=O
mutagenic call [5]: inactive; negative | mutagenic call [2]: inactive; negative | mutagenic call [7]: inactive; negative | mutagenic call [6]: inactive; negative | mutagenic call [8]: active; positive

O=C(Nc1cccc(Br)c1)c1csc([N+](=O)[O-])c1
mutagenic call [5]: active; positive | mutagenic call [6]: active; positive

N=NCCCO
mutagenic call (Test System: AMES SALMONELLA TYPHIMURIUM, Strain/Indicator: TA1535, Metabolic Activation: NONE, Method: STANDARD PLATE): active; positive | mutagenic call (Test System: E. COLI, Strain/Indicator: WP2, Metabolic Activation: NONE, Method: STANDARD PLATE): active; positive | mutagenic call (Test System: E. COLI, Strain/Indicator: WP2 UVRA, Metabolic Activation: NONE, Method: STANDARD PLATE): active; positive

Nc1ccc(Cc2ccc(N)c(Cc3ccc(N)cc3)c2)cc1
mutagenic call (Test System: AMES SALMONELLA TYPHIMURIUM, Strain/Indicator: TA97, Metabolic Activation: HAMSTER, LIVER, S-9, AROCLOR 1254 (10%), Method: PREINCUBATION): active; positive | mutagenic call (Test System: AMES SALMONELLA TYPHIMURIUM, Strain/Indicator: TA97, Metabolic Activation: NONE, Method: PREINCUBATION): inactive; negative | mutagenic call (Test System: AMES SALMONELLA TYPHIMURIUM, Strain/Indicator: TA97, Metabolic Activation: RAT, LIVER, S-9, AROCLOR 1254 (10%), Method: PREINCUBATION): active; positive | mutagenic call (Test System: AMES SALMONELLA TYPHIMURIUM, Strain/Indicator: TA98, Metabolic Activation: HAMSTER, LIVER, S-9, AROCLOR 1254 (10%), Method: PREINCUBATION): active; positive | mutagenic call [1]: inactive; negative | mutagenic call (Test System: AMES SALMONELLA TYPHIMURIUM, Strain/Indicator: TA98, Metabolic Activation: RAT, LIVER, S-9, AROCLOR 1254 (10%), Method: PREINCUBATION): active; positive | mutagenic call (Test System: AMES SALMONELLA TYPHIMURIUM, Strain/Indicator: TA100, Metabolic Activation: HAMSTER, LIVER, S-9, AROCLOR 1254 (10%), Method: PREINCUBATION): active; positive | mutagenic call [3]: inactive; negative | mutagenic call (Test System: AMES SALMONELLA TYPHIMURIUM, Strain/Indicator: TA100, Metabolic Activation: RAT, LIVER, S-9, AROCLOR 1254 (10%), Method: PREINCUBATION): active; positive | mutagenic call (Test System: AMES SALMONELLA TYPHIMURIUM, Strain/Indicator: TA1535, Metabolic Activation: HAMSTER, LIVER, S-9, AROCLOR 1254 (10%), Method: PREINCUBATION): inactive; negative | mutagenic call [4]: inactive; negative | mutagenic call (Test System: AMES SALMONELLA TYPHIMURIUM, Strain/Indicator: TA1535, Metabolic Activation: RAT, LIVER, S-9, AROCLOR 1254 (10%), Method: PREINCUBATION): inactive; negative | mutagenic call (Test System: AMES SALMONELLA TYPHIMURIUM, Strain/Indicator: TA1537, Metabolic Activation: HAMSTER, LIVER, S-9, AROCLOR 1254 (10%), Method: PREINCUBATION): active; positive | mutagenic call (Test System: AMES SALMONELLA TYPHIMURIUM, Strain/Indicator: TA1537, Metabolic Activation: RAT, LIVER, S-9, AROCLOR 1254 (10%), Method: PREINCUBATION): active; positive

CC(=O)c1ccc(N)cc1
mutagenic call (Test System: E. COLI, Strain/Indicator: WP2 UVRA, Metabolic Activation: NONE, Method: FLUCTUATION TEST): inactive; negative

COc1ccc(Nc2c3ccccc3nc3ccccc23)cc1
mutagenic call (Test System: AMES SALMONELLA TYPHIMURIUM, Strain/Indicator: TA1537, Metabolic Activation: NONE, Method: STANDARD PLATE): active; positive

O=C(O)[C@H]1OC(Oc2cccc3c2cc2ccc4cccc5ccc3c2c45)[C@H](O)[C@@H](O)[C@@H]1O (some centres undefined)
mutagenic call [1]: inactive; negative | mutagenic call (Test System: AMES SALMONELLA TYPHIMURIUM, Strain/Indicator: TA98, Metabolic Activation: RAT, LUNG, S-9, Method: PREINCUBATION): inactive; negative

Reference: PubChem BioAssay AID1259407 (Chemical Carcinogenesis Research Information System (CCRIS), 2018)
